From patent US7118895B2, “Process for producing aglycon by using diglycosidase and flavor-improved food containing the aglycon and converting agent to be used in the process” (Amano Enzyme Inc., priority 2000, dated 2006)

Tested on: Crude diglycosidase
Experiment: Examination of pH in the conversion into isoflavone aglycons by diglycosidase using soybean materials
Format: biochemical, Penicillium multicolor IAM7153
Parameters: Decomposition efficiency of genistin family in soymilk / Decomposition efficiency of genistin family in defatted soybean / Decomposition efficiency of daidzin family in defatted soybean: concentration or dose not given beside the values
Conditions: for Decomposition efficiency of daidzin family in roasted soy flour: 55° C.
Method in brief: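 HPLC readout: isoflavone glycosides vs aglycons. Substrates: 50 mg soy material (roasted flour, soymilk, defatted bean, concentrated protein), pH 2–11 (HCl/NaOH). Crude diglycosidase solution 1.88 AU/mL, matched pH; 55° C; quenched with ethanol at 0/1/3/6 h; centrifuged 15,000 rpm, 4° C, 10 min.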

[1] = pH4.8, heat treatment of enzyme: no, reaction time 0 h
[2] = pH4.8, heat treatment of enzyme: no, reaction time 1 h
[3] = pH4.8, heat treatment of enzyme: no, reaction time 3 h
[4] = pH4.8, heat treatment of enzyme: no, reaction time 6 h
[5] = pH4.8, heat treatment of enzyme: yes, reaction time 6 h
[6] = pH6.6, heat treatment of enzyme: no, reaction time 0 h
[7] = pH6.6, heat treatment of enzyme: no, reaction time 1 h
[8] = pH6.6, heat treatment of enzyme: no, reaction time 3 h
[9] = pH6.6, heat treatment of enzyme: no, reaction time 6 h
[10] = pH6.6, heat treatment of enzyme: yes, reaction time 6 h

O=c1c(-c2ccc(O)cc2)coc2cc(O[C@@H]3O[C@H](CO)[C@@H](O)[C@H](O)[C@H]3O)ccc12 [daidzin]
Decomposition efficiency of daidzin family in concentrated soybean protein (pH1.6, heat treatment of enzyme: no, reaction time 0 h): 52.5% | Decomposition efficiency of daidzin family in concentrated soybean protein (pH1.6, heat treatment of enzyme: no, reaction time 1 h): 53.0% | Decomposition efficiency of daidzin family in concentrated soybean protein (pH1.6, heat treatment of enzyme: no, reaction time 3 h): 55.0% | Decomposition efficiency of daidzin family in concentrated soybean protein (pH1.6, heat treatment of enzyme: no, reaction time 6 h): 57.2% | Decomposition efficiency of daidzin family in concentrated soybean protein (pH1.6, heat treatment of enzyme: yes, reaction time 6 h): 59.0% | Decomposition efficiency of daidzin family in roasted soy flour (pH2, heat treatment of enzyme no, reaction time 0 h): 49.1 | Decomposition efficiency of daidzin family in roasted soy flour (pH2, heat treatment of enzyme no, reaction time 1 h): 47.6 | Decomposition efficiency of daidzin family in roasted soy flour (pH2, heat treatment of enzyme no, reaction time 3 h): 50.3 | Decomposition efficiency of daidzin family in roasted soy flour (pH2, heat treatment of enzyme no, reaction time 6 h): 53.1 | Decomposition efficiency of daidzin family in roasted soy flour (pH2, heat treatment of enzyme yes, reaction time 6 h): 53.8 | Decomposition efficiency of daidzin family in soymilk (pH2.3, heat treatment of enzyme: no, reaction time 0 h): 34.4% | Decomposition efficiency of daidzin family in soymilk (pH2.3, heat treatment of enzyme: no, reaction time 1 h): not detected | Decomposition efficiency of daidzin family in soymilk (pH2.3, heat treatment of enzyme: no, reaction time 3 h): not detected | Decomposition efficiency of daidzin family in soymilk (pH2.3, heat treatment of enzyme: no, reaction time 6 h): not detected | Decomposition efficiency of daidzin family in soymilk (pH2.3, heat treatment of enzyme: yes, reaction time 6 h): 38.8% | Decomposition efficiency of daidzin family in defatted soybean (pH2.6, heat treatment of enzyme: no, reaction time 0 h): 45.8% | Decomposition efficiency of daidzin family in defatted soybean (pH2.6, heat treatment of enzyme: no, reaction time 1 h): 37.5% | Decomposition efficiency of daidzin family in defatted soybean (pH2.6, heat treatment of enzyme: no, reaction time 3 h): 17.3% | Decomposition efficiency of daidzin family in defatted soybean (pH2.6, heat treatment of enzyme: no, reaction time 6 h): 16.9% | Decomposition efficiency of daidzin family in defatted soybean (pH2.6, heat treatment of enzyme: yes, reaction time 6 h): 48.0% | Decomposition efficiency of daidzin family in concentrated soybean protein (pH2.7, heat treatment of enzyme: no, reaction time 0 h): 52.5% | Decomposition efficiency of daidzin family in concentrated soybean protein (pH2.7, heat treatment of enzyme: no, reaction time 1 h): 12.9% | Decomposition efficiency of daidzin family in concentrated soybean protein (pH2.7, heat treatment of enzyme: no, reaction time 3 h): 12.5% | Decomposition efficiency of daidzin family in concentrated soybean protein (pH2.7, heat treatment of enzyme: no, reaction time 6 h): 9.3% | Decomposition efficiency of daidzin family in concentrated soybean protein (pH2.7, heat treatment of enzyme: yes, reaction time 6 h): 53.0% | Decomposition efficiency of daidzin family in roasted soy flour (pH3, heat treatment of enzyme no, reaction time 0 h): 49.1 | Decomposition efficiency of daidzin family in roasted soy flour (pH3, heat treatment of enzyme no, reaction time 1 h): not detected | Decomposition efficiency of daidzin family in roasted soy flour (pH3, heat treatment of enzyme no, reaction time 3 h): not detected | Decomposition efficiency of daidzin family in roasted soy flour (pH3, heat treatment of enzyme no, reaction time 6 h): not detected | Decomposition efficiency of daidzin family in roasted soy flour (pH3, heat treatment of enzyme yes, reaction time 6 h): 49.0 | Decomposition efficiency of daidzin family in defatted soybean (pH3.4, heat treatment of enzyme: no, reaction time 0 h): 45.8% | Decomposition efficiency of daidzin family in defatted soybean (pH3.4, heat treatment of enzyme: no, reaction time 1 h): not detected | Decomposition efficiency of daidzin family in defatted soybean (pH3.4, heat treatment of enzyme: no, reaction time 3 h): not detected | Decomposition efficiency of daidzin family in defatted soybean (pH3.4, heat treatment of enzyme: no, reaction time 6 h): not detected | Decomposition efficiency of daidzin family in defatted soybean (pH3.4, heat treatment of enzyme: yes, reaction time 6 h): 47.8% | Decomposition efficiency of daidzin family in soymilk (pH3.5, heat treatment of enzyme: no, reaction time 0 h): 34.4% | Decomposition efficiency of daidzin family in soymilk (pH3.5, heat treatment of enzyme: no, reaction time 1 h): not detected | Decomposition efficiency of daidzin family in soymilk (pH3.5, heat treatment of enzyme: no, reaction time 3 h): not detected | Decomposition efficiency of daidzin family in soymilk (pH3.5, heat treatment of enzyme: no, reaction time 6 h): not detected | Decomposition efficiency of daidzin family in soymilk (pH3.5, heat treatment of enzyme: yes, reaction time 6 h): 40.4% | Decomposition efficiency of daidzin family in concentrated soybean protein (pH3.7, heat treatment of enzyme: no, reaction time 0 h): 52.5% | Decomposition efficiency of daidzin family in concentrated soybean protein (pH3.7, heat treatment of enzyme: no, reaction time 1 h): not detected | Decomposition efficiency of daidzin family in concentrated soybean protein (pH3.7, heat treatment of enzyme: no, reaction time 3 h): not detected | Decomposition efficiency of daidzin family in concentrated soybean protein (pH3.7, heat treatment of enzyme: no, reaction time 6 h): not detected | Decomposition efficiency of daidzin family in concentrated soybean protein (pH3.7, heat treatment of enzyme: yes, reaction time 6 h): 52.5% | Decomposition efficiency of daidzin family in roasted soy flour (pH4, heat treatment of enzyme no, reaction time 0 h): 48.7 | Decomposition efficiency of daidzin family in roasted soy flour (pH4, heat treatment of enzyme no, reaction time 1 h): not detected | Decomposition efficiency of daidzin family in roasted soy flour (pH4, heat treatment of enzyme no, reaction time 3 h): not detected | Decomposition efficiency of daidzin family in roasted soy flour (pH4, heat treatment of enzyme no, reaction time 6 h): not detected | Decomposition efficiency of daidzin family in roasted soy flour (pH4, heat treatment of enzyme yes, reaction time 6 h): 48.6 | Decomposition efficiency of daidzin family in defatted soybean [1]: 43.5% | Decomposition efficiency of daidzin family in soymilk [1]: 34.9% | Decomposition efficiency of daidzin family in defatted soybean [2]: not detected | Decomposition efficiency of daidzin family in soymilk [2]: not detected | Decomposition efficiency of daidzin family in defatted soybean [3]: not detected | Decomposition efficiency of daidzin family in soymilk [3]: not detected | Decomposition efficiency of daidzin family in defatted soybean [4]: not detected | Decomposition efficiency of daidzin family in soymilk [4]: not detected | Decomposition efficiency of daidzin family in defatted soybean [5]: 37.1% | Decomposition efficiency of daidzin family in soymilk [5]: 41.2% | Decomposition efficiency of daidzin family in roasted soy flour (pH5, heat treatment of enzyme no, reaction time 0 h): 48.7 | Decomposition efficiency of daidzin family in roasted soy flour (pH5, heat treatment of enzyme no, reaction time 1 h): not detected | Decomposition efficiency of daidzin family in roasted soy flour (pH5, heat treatment of enzyme no, reaction time 3 h): not detected | Decomposition efficiency of daidzin family in roasted soy flour (pH5, heat treatment of enzyme no, reaction time 6 h): not detected | Decomposition efficiency of daidzin family in roasted soy flour (pH5, heat treatment of enzyme yes, reaction time 6 h): 50.6 | Decomposition efficiency of daidzin family in concentrated soybean protein (pH5.1, heat treatment of enzyme: no, reaction time 0 h): 52.5% | Decomposition efficiency of daidzin family in concentrated soybean protein (pH5.1, heat treatment of enzyme: no, reaction time 1 h): not detected | Decomposition efficiency of daidzin family in concentrated soybean protein (pH5.1, heat treatment of enzyme: no, reaction time 3 h): not detected | Decomposition efficiency of daidzin family in concentrated soybean protein (pH5.1, heat treatment of enzyme: no, reaction time 6 h): not detected | Decomposition efficiency of daidzin family in concentrated soybean protein (pH5.1, heat treatment of enzyme: yes, reaction time 6 h): 53.4% | Decomposition efficiency of daidzin family in defatted soybean (pH5.4, heat treatment of enzyme: no, reaction time 0 h): 43.5% | Decomposition efficiency of daidzin family in defatted soybean (pH5.4, heat treatment of enzyme: no, reaction time 1 h): not detected | Decomposition efficiency of daidzin family in defatted soybean (pH5.4, heat treatment of enzyme: no, reaction time 3 h): not detected | Decomposition efficiency of daidzin family in defatted soybean (pH5.4, heat treatment of enzyme: no, reaction time 6 h): not detected | Decomposition efficiency of daidzin family in defatted soybean (pH5.4, heat treatment of enzyme: yes, reaction time 6 h): not detected | Decomposition efficiency of daidzin family in soymilk (pH6.2, heat treatment of enzyme: no, reaction time 0 h): 34.9% | Decomposition efficiency of daidzin family in soymilk (pH6.2, heat treatment of enzyme: no, reaction time 1 h): not detected | Decomposition efficiency of daidzin family in soymilk (pH6.2, heat treatment of enzyme: no, reaction time 3 h): not detected | Decomposition efficiency of daidzin family in soymilk (pH6.2, heat treatment of enzyme: no, reaction time 6 h): not detected | Decomposition efficiency of daidzin family in soymilk (pH6.2, heat treatment of enzyme: yes, reaction time 6 h): 40.6% | Decomposition efficiency of daidzin family in roasted soy flour (pH6.5, heat treatment of enzyme no, reaction time 0 h): 48.4 | Decomposition efficiency of daidzin family in roasted soy flour (pH6.5, heat treatment of enzyme no, reaction time 1 h): not detected | Decomposition efficiency of daidzin family in roasted soy flour (pH6.5, heat treatment of enzyme no, reaction time 3 h): not detected | Decomposition efficiency of daidzin family in roasted soy flour (pH6.5, heat treatment of enzyme no, reaction time 6 h): not detected | Decomposition efficiency of daidzin family in roasted soy flour (pH6.5, heat treatment of enzyme yes, reaction time 6 h): 51.9 | Decomposition efficiency of daidzin family in concentrated soybean protein [6]: 52.1% | Decomposition efficiency of daidzin family in defatted soybean [6]: 43.6% | Decomposition efficiency of daidzin family in concentrated soybean protein [7]: 5.0% | Decomposition efficiency of daidzin family in defatted soybean [7]: not detected | Decomposition efficiency of daidzin family in concentrated soybean protein [8]: not detected | Decomposition efficiency of daidzin family in defatted soybean [8]: not detected | Decomposition efficiency of daidzin family in concentrated soybean protein [9]: not detected | Decomposition efficiency of daidzin family in defatted soybean [9]: not detected | Decomposition efficiency of daidzin family in concentrated soybean protein [10]: 55.1% | Decomposition efficiency of daidzin family in defatted soybean [10]: 9.3% | Decomposition efficiency of daidzin family in soymilk (pH7.2, heat treatment of enzyme: no, reaction time 0 h): 34.9% | Decomposition efficiency of daidzin family in soymilk (pH7.2, heat treatment of enzyme: no, reaction time 1 h): not detected | Decomposition efficiency of daidzin family in soymilk (pH7.2, heat treatment of enzyme: no, reaction time 3 h): not detected | Decomposition efficiency of daidzin family in soymilk (pH7.2, heat treatment of enzyme: no, reaction time 6 h): not detected | Decomposition efficiency of daidzin family in soymilk (pH7.2, heat treatment of enzyme: yes, reaction time 6 h): 41.5% | Decomposition efficiency of daidzin family in defatted soybean (pH7.8, heat treatment of enzyme: no, reaction time 0 h): 44.7% | Decomposition efficiency of daidzin family in defatted soybean (pH7.8, heat treatment of enzyme: no, reaction time 1 h): 13.3% | Decomposition efficiency of daidzin family in defatted soybean (pH7.8, heat treatment of enzyme: no, reaction time 3 h): 10.1% | Decomposition efficiency of daidzin family in defatted soybean (pH7.8, heat treatment of enzyme: no, reaction time 6 h): 9.4% | Decomposition efficiency of daidzin family in defatted soybean (pH7.8, heat treatment of enzyme: yes, reaction time 6 h): 41.6% | Decomposition efficiency of daidzin family in roasted soy flour (pH8.5, heat treatment of enzyme no, reaction time 0 h): 54.1 | Decomposition efficiency of daidzin family in roasted soy flour (pH8.5, heat treatment of enzyme no, reaction time 1 h): 20.4 | Decomposition efficiency of daidzin family in roasted soy flour (pH8.5, heat treatment of enzyme no, reaction time 3 h): 13.3 | Decomposition efficiency of daidzin family in roasted soy flour (pH8.5, heat treatment of enzyme no, reaction time 6 h): 10.2 | Decomposition efficiency of daidzin family in roasted soy flour (pH8.5, heat treatment of enzyme yes, reaction time 6 h): 58.8 | Decomposition efficiency of daidzin family in concentrated soybean protein (pH8.6, heat treatment of enzyme: no, reaction time 0 h): 56.1% | Decomposition efficiency of daidzin family in concentrated soybean protein (pH8.6, heat treatment of enzyme: no, reaction time 1 h): 50.8% | Decomposition efficiency of daidzin family in concentrated soybean protein (pH8.6, heat treatment of enzyme: no, reaction time 3 h): 45.0% | Decomposition efficiency of daidzin family in concentrated soybean protein (pH8.6, heat treatment of enzyme: no, reaction time 6 h): 34.5% | Decomposition efficiency of daidzin family in concentrated soybean protein (pH8.6, heat treatment of enzyme: yes, reaction time 6 h): 59.1% | Decomposition efficiency of daidzin family in soymilk (pH11.6, heat treatment of enzyme: no, reaction time 0 h): 38.8% | Decomposition efficiency of daidzin family in soymilk (pH11.6, heat treatment of enzyme: no, reaction time 1 h): not detected | Decomposition efficiency of daidzin family in soymilk (pH11.6, heat treatment of enzyme: no, reaction time 3 h): not detected | Decomposition efficiency of daidzin family in soymilk (pH11.6, heat treatment of enzyme: no, reaction time 6 h): not detected | Decomposition efficiency of daidzin family in soymilk (pH11.6, heat treatment of enzyme: yes, reaction time 6 h): 44.6%
